In brackets after ≈: the same amount, converted by molar mass.
What was measured:
Assay type in all cases: functional
Fusarium verticillioides [1] = experiment: Antifungal activity against Fusarium verticillioides NCIM 1276 at 5 to 20 ug/ml after 24 hr by paper disk diffusion method
Trichoderma [2] = experiment: Antifungal activity against Trichoderma sp. ATCC 5248 at 5 to 20 ug/ml after 24 hr by paper disk diffusion method
Saccharomyces cerevisiae [3] = experiment: Antifungal activity against Saccharomyces cerevisiae 180 at 5 to 20 ug/ml after 24 hr by paper disk diffusion method
Aspergillus niger [4] = experiment: Antifungal activity against Aspergillus niger ATCC 4578 at 5 to 20 ug/ml after 24 hr by paper disk diffusion method
Fusarium verticillioides [5] = experiment: Antifungal activity against Fusarium verticillioides NCIM 1276 after 24 hr by paper disk diffusion method; details: NCIM 1276, 24 h
Trichoderma [6] = experiment: Antifungal activity against Trichoderma sp. ATCC 5248 after 24 hr by paper disk diffusion method; details: ATCC 5248, 24 h
Saccharomyces cerevisiae [7] = experiment: Antifungal activity against Saccharomyces cerevisiae 180 after 24 hr by paper disk diffusion method; details: Saccharomyces cerevisiae, 180, 24 h
Aspergillus niger [8] = experiment: Antifungal activity against Aspergillus niger ATCC 4578 after 24 hr by paper disk diffusion method; details: ATCC 4578, 24 h
Pseudomonas fluorescens [9] = experiment: Antibacterial activity against Pseudomonas fluorescens ATCC 3458 5 to 20 ug/ml after 24 hr by paper disk diffusion method
Pseudomonas aeruginosa [10] = experiment: Antibacterial activity against Pseudomonas aeruginosa MTCC 3363 5 to 20 ug/ml after 24 hr by paper disk diffusion method
Bacillus subtilis [11] = experiment: Antibacterial activity against Bacillus subtilis ATCC 6633 5 to 20 ug/ml after 24 hr by paper disk diffusion method
Escherichia coli [12] = experiment: Antibacterial activity against Escherichia coli DH5[alpha] at 5 to 20 ug/ml after 24 hr by paper disk diffusion method
Pseudomonas fluorescens [13] = experiment: Antibacterial activity against Pseudomonas fluorescens ATCC 3458 after 24 hr by paper disk diffusion method; details: ATCC 3458, 24 h
Pseudomonas aeruginosa [14] = experiment: Antibacterial activity against Pseudomonas aeruginosa MTCC 3363 after 24 hr by paper disk diffusion method; details: MTCC 3363, 24 h
Bacillus subtilis [15] = experiment: Antibacterial activity against Bacillus subtilis ATCC 6633 after 24 hr by paper disk diffusion method; details: ATCC 6633, 24 h
Escherichia coli [16] = experiment: Antibacterial activity against Escherichia coli DH5[alpha] after 24 hr by paper disk diffusion method

Nn1c(S)nnc1-c1ccccc1
diameter of the inhibition zone (DIZ) (Fusarium verticillioides [1]): 16 mm | diameter of the inhibition zone (DIZ) (Trichoderma [2]): 16 mm | diameter of the inhibition zone (DIZ) (Saccharomyces cerevisiae [3]): 16 mm | diameter of the inhibition zone (DIZ) (Aspergillus niger [4]): 16 mm | MIC (Fusarium verticillioides [5]): 12.5 mg/L (≈ 65 µM) | MIC (Trichoderma [6]): 12.5 mg/L (≈ 65 µM) | MIC (Saccharomyces cerevisiae [7]): 12.5 mg/L (≈ 65 µM) | MIC (Aspergillus niger [8]): 12.5 mg/L (≈ 65 µM) | diameter of the inhibition zone (DIZ) (Pseudomonas fluorescens [9]): 16 mm | diameter of the inhibition zone (DIZ) (Pseudomonas aeruginosa [10]): 16 mm | diameter of the inhibition zone (DIZ) (Bacillus subtilis [11]): 16 mm | diameter of the inhibition zone (DIZ) (Escherichia coli [12]): 16 mm | MIC (Pseudomonas fluorescens [13]): 12.5 mg/L (≈ 65 µM) | MIC (Pseudomonas aeruginosa [14]): 12.5 mg/L (≈ 65 µM) | MIC (Bacillus subtilis [15]): 12.5 mg/L (≈ 65 µM) | MIC (Escherichia coli [16]): 12.5 mg/L (≈ 65 µM)

Nn1c(Sc2ccc(S(=O)(=O)Cl)cc2)nnc1-c1ccccc1
diameter of the inhibition zone (DIZ) (Fusarium verticillioides [1]): <12 mm | diameter of the inhibition zone (DIZ) (Trichoderma [2]): <12 mm | diameter of the inhibition zone (DIZ) (Saccharomyces cerevisiae [3]): <12 mm | diameter of the inhibition zone (DIZ) (Aspergillus niger [4]): <12 mm | MIC (Fusarium verticillioides [5]): 15 mg/L (≈ 40.9 µM) | MIC (Trichoderma [6]): 15 mg/L (≈ 40.9 µM) | MIC (Saccharomyces cerevisiae [7]): 15 mg/L (≈ 40.9 µM) | MIC (Aspergillus niger [8]): 15 mg/L (≈ 40.9 µM) | diameter of the inhibition zone (DIZ) (Pseudomonas fluorescens [9]): <10 mm | diameter of the inhibition zone (DIZ) (Pseudomonas aeruginosa [10]): <10 mm | diameter of the inhibition zone (DIZ) (Bacillus subtilis [11]): <10 mm | diameter of the inhibition zone (DIZ) (Escherichia coli [12]): <10 mm | MIC (Pseudomonas fluorescens [13]): 15 mg/L (≈ 40.9 µM) | MIC (Pseudomonas aeruginosa [14]): 15 mg/L (≈ 40.9 µM) | MIC (Bacillus subtilis [15]): 15 mg/L (≈ 40.9 µM) | MIC (Escherichia coli [16]): 15 mg/L (≈ 40.9 µM)

Nn1c(Sc2ccc(Br)cc2)nnc1-c1ccccc1
diameter of the inhibition zone (DIZ) (Fusarium verticillioides [1]): 16 mm | diameter of the inhibition zone (DIZ) (Trichoderma [2]): 16 mm | diameter of the inhibition zone (DIZ) (Saccharomyces cerevisiae [3]): 16 mm | diameter of the inhibition zone (DIZ) (Aspergillus niger [4]): 16 mm | MIC (Fusarium verticillioides [5]): 10 mg/L (≈ 28.8 µM) | MIC (Trichoderma [6]): 10 mg/L (≈ 28.8 µM) | MIC (Saccharomyces cerevisiae [7]): 10 mg/L (≈ 28.8 µM) | MIC (Aspergillus niger [8]): 10 mg/L (≈ 28.8 µM) | diameter of the inhibition zone (DIZ) (Pseudomonas fluorescens [9]): 16 mm | diameter of the inhibition zone (DIZ) (Pseudomonas aeruginosa [10]): 16 mm | diameter of the inhibition zone (DIZ) (Bacillus subtilis [11]): 16 mm | diameter of the inhibition zone (DIZ) (Escherichia coli [12]): 16 mm | MIC (Pseudomonas fluorescens [13]): 10 mg/L (≈ 28.8 µM) | MIC (Pseudomonas aeruginosa [14]): 10 mg/L (≈ 28.8 µM) | MIC (Bacillus subtilis [15]): 10 mg/L (≈ 28.8 µM) | MIC (Escherichia coli [16]): 10 mg/L (≈ 28.8 µM)

Nn1c(Sc2ccc(C(Cl)(Cl)Cl)cc2)nnc1-c1ccccc1
diameter of the inhibition zone (DIZ) (Fusarium verticillioides [1]): 18 mm | diameter of the inhibition zone (DIZ) (Trichoderma [2]): 22 mm | diameter of the inhibition zone (DIZ) (Saccharomyces cerevisiae [3]): 16 mm | diameter of the inhibition zone (DIZ) (Aspergillus niger [4]): 14 mm | MIC (Fusarium verticillioides [5]): 5 mg/L (≈ 13 µM) | MIC (Trichoderma [6]): 5 mg/L (≈ 13 µM) | MIC (Saccharomyces cerevisiae [7]): 5 mg/L (≈ 13 µM) | MIC (Aspergillus niger [8]): 5 mg/L (≈ 13 µM) | diameter of the inhibition zone (DIZ) (Pseudomonas fluorescens [9]): 14 mm | diameter of the inhibition zone (DIZ) (Pseudomonas aeruginosa [10]): 16 mm | diameter of the inhibition zone (DIZ) (Bacillus subtilis [11]): 14 mm | diameter of the inhibition zone (DIZ) (Escherichia coli [12]): 14 mm | MIC (Pseudomonas fluorescens [13]): 5 mg/L (≈ 13 µM) | MIC (Pseudomonas aeruginosa [14]): 5 mg/L (≈ 13 µM) | MIC (Bacillus subtilis [15]): 5 mg/L (≈ 13 µM) | MIC (Escherichia coli [16]): 5 mg/L (≈ 13 µM)

Nn1c(Sc2ccc(Cl)cc2)nnc1-c1ccccc1
diameter of the inhibition zone (DIZ) (Fusarium verticillioides [1]): 16 mm | diameter of the inhibition zone (DIZ) (Trichoderma [2]): 16 mm | diameter of the inhibition zone (DIZ) (Saccharomyces cerevisiae [3]): 16 mm | diameter of the inhibition zone (DIZ) (Aspergillus niger [4]): 16 mm | MIC (Fusarium verticillioides [5]): 10 mg/L (≈ 33 µM) | MIC (Trichoderma [6]): 10 mg/L (≈ 33 µM) | MIC (Saccharomyces cerevisiae [7]): 10 mg/L (≈ 33 µM) | MIC (Aspergillus niger [8]): 10 mg/L (≈ 33 µM) | diameter of the inhibition zone (DIZ) (Pseudomonas fluorescens [9]): 16 mm | diameter of the inhibition zone (DIZ) (Pseudomonas aeruginosa [10]): 16 mm | diameter of the inhibition zone (DIZ) (Bacillus subtilis [11]): 16 mm | diameter of the inhibition zone (DIZ) (Escherichia coli [12]): 16 mm | MIC (Pseudomonas fluorescens [13]): 10 mg/L (≈ 33 µM) | MIC (Pseudomonas aeruginosa [14]): 10 mg/L (≈ 33 µM) | MIC (Bacillus subtilis [15]): 10 mg/L (≈ 33 µM) | MIC (Escherichia coli [16]): 10 mg/L (≈ 33 µM)

Nn1c(S)nnc1-c1ccccc1O
diameter of the inhibition zone (DIZ) (Fusarium verticillioides [1]): 16 mm | diameter of the inhibition zone (DIZ) (Trichoderma [2]): 16 mm | diameter of the inhibition zone (DIZ) (Saccharomyces cerevisiae [3]): 16 mm | diameter of the inhibition zone (DIZ) (Aspergillus niger [4]): 16 mm | MIC (Fusarium verticillioides [5]): 12.5 mg/L (≈ 60 µM) | MIC (Trichoderma [6]): 12.5 mg/L (≈ 60 µM) | MIC (Saccharomyces cerevisiae [7]): 12.5 mg/L (≈ 60 µM) | MIC (Aspergillus niger [8]): 12.5 mg/L (≈ 60 µM) | diameter of the inhibition zone (DIZ) (Pseudomonas fluorescens [9]): 16 mm | diameter of the inhibition zone (DIZ) (Pseudomonas aeruginosa [10]): 16 mm | diameter of the inhibition zone (DIZ) (Bacillus subtilis [11]): 16 mm | diameter of the inhibition zone (DIZ) (Escherichia coli [12]): 16 mm | MIC (Pseudomonas fluorescens [13]): 12.5 mg/L (≈ 60 µM) | MIC (Pseudomonas aeruginosa [14]): 12.5 mg/L (≈ 60 µM) | MIC (Bacillus subtilis [15]): 12.5 mg/L (≈ 60 µM) | MIC (Escherichia coli [16]): 12.5 mg/L (≈ 60 µM)

CC(=O)Nn1c(S)nnc1-c1ccccc1
diameter of the inhibition zone (DIZ) (Fusarium verticillioides [1]): <12 mm | diameter of the inhibition zone (DIZ) (Trichoderma [2]): <12 mm | diameter of the inhibition zone (DIZ) (Saccharomyces cerevisiae [3]): <12 mm | diameter of the inhibition zone (DIZ) (Aspergillus niger [4]): <12 mm | MIC (Fusarium verticillioides [5]): 15 mg/L (≈ 64 µM) | MIC (Trichoderma [6]): 15 mg/L (≈ 64 µM) | MIC (Saccharomyces cerevisiae [7]): 15 mg/L (≈ 64 µM) | MIC (Aspergillus niger [8]): 15 mg/L (≈ 64 µM) | diameter of the inhibition zone (DIZ) (Pseudomonas fluorescens [9]): <10 mm | diameter of the inhibition zone (DIZ) (Pseudomonas aeruginosa [10]): <10 mm | diameter of the inhibition zone (DIZ) (Bacillus subtilis [11]): <10 mm | diameter of the inhibition zone (DIZ) (Escherichia coli [12]): <10 mm | MIC (Pseudomonas fluorescens [13]): 15 mg/L (≈ 64 µM) | MIC (Pseudomonas aeruginosa [14]): 15 mg/L (≈ 64 µM) | MIC (Bacillus subtilis [15]): 15 mg/L (≈ 64 µM) | MIC (Escherichia coli [16]): 15 mg/L (≈ 64 µM)

Nn1c(Sc2ccc([N+](=O)[O-])cc2[N+](=O)[O-])nnc1-c1ccccc1
diameter of the inhibition zone (DIZ) (Fusarium verticillioides [1]): <12 mm | diameter of the inhibition zone (DIZ) (Trichoderma [2]): <12 mm | diameter of the inhibition zone (DIZ) (Saccharomyces cerevisiae [3]): <12 mm | diameter of the inhibition zone (DIZ) (Aspergillus niger [4]): <12 mm | MIC (Fusarium verticillioides [5]): 15 mg/L (≈ 41.9 µM) | MIC (Trichoderma [6]): 15 mg/L (≈ 41.9 µM) | MIC (Saccharomyces cerevisiae [7]): 15 mg/L (≈ 41.9 µM) | MIC (Aspergillus niger [8]): 15 mg/L (≈ 41.9 µM) | diameter of the inhibition zone (DIZ) (Pseudomonas fluorescens [9]): <10 mm | diameter of the inhibition zone (DIZ) (Pseudomonas aeruginosa [10]): <10 mm | diameter of the inhibition zone (DIZ) (Bacillus subtilis [11]): <10 mm | diameter of the inhibition zone (DIZ) (Escherichia coli [12]): <10 mm | MIC (Pseudomonas fluorescens [13]): 15 mg/L (≈ 41.9 µM) | MIC (Pseudomonas aeruginosa [14]): 15 mg/L (≈ 41.9 µM) | MIC (Bacillus subtilis [15]): 15 mg/L (≈ 41.9 µM) | MIC (Escherichia coli [16]): 15 mg/L (≈ 41.9 µM)

CO/N=C(\C(=O)N[C@@H]1C(=O)N2C(C(=O)O)=C(CSc3nc(=O)c(O)nn3C)CS[C@H]12)c1csc(N)n1 [CEFTRIAXONE]
diameter of the inhibition zone (DIZ) (Pseudomonas fluorescens [9]): 16 mm | diameter of the inhibition zone (DIZ) (Pseudomonas aeruginosa [10]): 18 mm | diameter of the inhibition zone (DIZ) (Bacillus subtilis [11]): 16 mm | diameter of the inhibition zone (DIZ) (Escherichia coli [12]): 16 mm | MIC (Pseudomonas fluorescens [13]): 5 mg/L (≈ 9.02 µM) | MIC (Pseudomonas aeruginosa [14]): 5 mg/L (≈ 9.02 µM) | MIC (Bacillus subtilis [15]): 5 mg/L (≈ 9.02 µM) | MIC (Escherichia coli [16]): 5 mg/L (≈ 9.02 µM)

CC(=O)N1CCN(c2ccc(OCC3COC(Cn4ccnc4)(c4ccc(Cl)cc4Cl)O3)cc2)CC1 (centres undefined) [KETOCONAZOLE]
diameter of the inhibition zone (DIZ) (Fusarium verticillioides [1]): 20 mm | diameter of the inhibition zone (DIZ) (Trichoderma [2]): 25 mm | diameter of the inhibition zone (DIZ) (Saccharomyces cerevisiae [3]): 18 mm | diameter of the inhibition zone (DIZ) (Aspergillus niger [4]): 16 mm | MIC (Fusarium verticillioides [5]): 5 mg/L (≈ 9.41 µM) | MIC (Trichoderma [6]): 5 mg/L (≈ 9.41 µM) | MIC (Saccharomyces cerevisiae [7]): 5 mg/L (≈ 9.41 µM) | MIC (Aspergillus niger [8]): 5 mg/L (≈ 9.41 µM)

From ChEMBL document CHEMBL3045378, “Synthesis and evaluation of 4-amino-5-phenyl-4H-[1,2,4]-triazole-3-thiol derivatives as antimicrobial agents” (2010)
